Data from the NIST ThermoML archive (doi:10.1016/j.jct.2010.08.016).
± gives the expanded uncertainty stated by the source.

Columns and labels:
[1] = refractive index (Na D-line) (dimensionless); xn = mol fraction of the nth substance listed; settings: 101 kPa, Liquid, Standard Abbe refractometry
[2] = xn = mol fraction of the nth substance listed; settings: 101 kPa, Liquid; for electrical conductivity: Alternating current cell with electrodes; for mass density: Vibrating tube method

NC(CO)(CO)CO [2-amino-2-(hydroxymethyl)-1,3-propanediol] + O
Settings | electrical conductivity [S/m] | mass density [kg/m3] | refractive index
[1], 293.15 K, x1 = 0.01 | – | – | 1.34226 ± 0.00031
[1], 293.15 K, x1 = 0.02 | – | – | 1.35089 ± 0.00031
[1], 293.15 K, x1 = 0.03 | – | – | 1.35884 ± 0.00031
[1], 293.15 K, x1 = 0.04 | – | – | 1.37118 ± 0.00031
[1], 293.15 K, x1 = 0.05 | – | – | 1.37635 ± 0.00031
[1], 293.15 K, x1 = 0.06 | – | – | 1.3797 ± 0.00031
[1], 293.15 K, x1 = 0.07 | – | – | 1.38587 ± 0.00031
[1], 298.15 K, x1 = 0.01 | – | – | 1.34173 ± 0.00031
[1], 298.15 K, x1 = 0.02 | – | – | 1.35029 ± 0.00031
[1], 298.15 K, x1 = 0.03 | – | – | 1.35819 ± 0.00031
[1], 298.15 K, x1 = 0.04 | – | – | 1.37048 ± 0.00031
[1], 298.15 K, x1 = 0.05 | – | – | 1.37565 ± 0.00031
[1], 298.15 K, x1 = 0.06 | – | – | 1.37896 ± 0.00031
[1], 298.15 K, x1 = 0.07 | – | – | 1.38509 ± 0.00031
[1], 303.15 K, x1 = 0.01 | – | – | 1.34111 ± 0.00031
[1], 303.15 K, x1 = 0.02 | – | – | 1.34961 ± 0.00031
[1], 303.15 K, x1 = 0.03 | – | – | 1.35746 ± 0.00031
[1], 303.15 K, x1 = 0.04 | – | – | 1.3697 ± 0.00031
[1], 303.15 K, x1 = 0.05 | – | – | 1.37485 ± 0.00031
[1], 303.15 K, x1 = 0.06 | – | – | 1.37816 ± 0.00031
[1], 303.15 K, x1 = 0.07 | – | – | 1.38425 ± 0.00031
[1], 308.15 K, x1 = 0.01 | – | – | 1.34042 ± 0.00031
[1], 308.15 K, x1 = 0.02 | – | – | 1.34889 ± 0.00031
[1], 308.15 K, x1 = 0.03 | – | – | 1.35667 ± 0.00031
[1], 308.15 K, x1 = 0.04 | – | – | 1.36888 ± 0.00031
[1], 308.15 K, x1 = 0.05 | – | – | 1.37406 ± 0.00031
[1], 308.15 K, x1 = 0.06 | – | – | 1.37728 ± 0.00031
[1], 308.15 K, x1 = 0.07 | – | – | 1.38334 ± 0.00031
[1], 313.15 K, x1 = 0.01 | – | – | 1.33972 ± 0.00031
[1], 313.15 K, x1 = 0.02 | – | – | 1.34821 ± 0.00031
[1], 313.15 K, x1 = 0.03 | – | – | 1.35596 ± 0.00031
[1], 313.15 K, x1 = 0.04 | – | – | 1.36815 ± 0.00031
[1], 313.15 K, x1 = 0.05 | – | – | 1.37347 ± 0.00031
[1], 313.15 K, x1 = 0.06 | – | – | 1.37673 ± 0.00031
[1], 313.15 K, x1 = 0.07 | – | – | 1.38271 ± 0.00031
[1], 318.15 K, x1 = 0.01 | – | – | 1.33899 ± 0.00031
[1], 318.15 K, x1 = 0.02 | – | – | 1.34742 ± 0.00031
[1], 318.15 K, x1 = 0.03 | – | – | 1.3552 ± 0.00031
[1], 318.15 K, x1 = 0.04 | – | – | 1.36739 ± 0.00031
[1], 318.15 K, x1 = 0.05 | – | – | 1.37247 ± 0.00031
[1], 318.15 K, x1 = 0.06 | – | – | 1.37581 ± 0.00031
[1], 318.15 K, x1 = 0.07 | – | – | 1.38182 ± 0.00031
[1], 323.15 K, x1 = 0.01 | – | – | 1.3381 ± 0.00031
[1], 323.15 K, x1 = 0.02 | – | – | 1.34668 ± 0.00031
[1], 323.15 K, x1 = 0.03 | – | – | 1.35447 ± 0.00031
[1], 323.15 K, x1 = 0.04 | – | – | 1.36673 ± 0.00031
[1], 323.15 K, x1 = 0.05 | – | – | 1.37176 ± 0.00031
[1], 323.15 K, x1 = 0.06 | – | – | 1.37507 ± 0.00031
[1], 323.15 K, x1 = 0.07 | – | – | 1.38124 ± 0.00031
[1], 328.15 K, x1 = 0.01 | – | – | 1.33723 ± 0.00031
[1], 328.15 K, x1 = 0.02 | – | – | 1.34603 ± 0.00031
[1], 328.15 K, x1 = 0.03 | – | – | 1.35389 ± 0.00031
[1], 328.15 K, x1 = 0.04 | – | – | 1.36626 ± 0.00031
[1], 328.15 K, x1 = 0.05 | – | – | 1.37115 ± 0.00031
[1], 328.15 K, x1 = 0.06 | – | – | 1.37453 ± 0.00031
[1], 328.15 K, x1 = 0.07 | – | – | 1.38089 ± 0.00031
[2], 293.15 K, x1 = 0.01 | 0.0158 ± 0.00032 | 1022.2 ± 0.8 | –
[2], 293.15 K, x1 = 0.02 | 0.0179 ± 0.00036 | 1036.6 ± 0.8 | –
[2], 293.15 K, x1 = 0.03 | 0.0189 ± 0.00038 | 1049.4 ± 0.8 | –
[2], 293.15 K, x1 = 0.04 | 0.0193 ± 0.00039 | 1056.4 ± 0.8 | –
[2], 293.15 K, x1 = 0.05 | 0.0205 ± 0.00041 | 1073.8 ± 0.8 | –
[2], 293.15 K, x1 = 0.06 | 0.0205 ± 0.00041 | 1079.9 ± 0.8 | –
[2], 293.15 K, x1 = 0.07 | 0.018 ± 0.00036 | 1090 ± 0.8 | –
[2], 303.15 K, x1 = 0.01 | 0.0195 ± 0.00039 | – | –
[2], 303.15 K, x1 = 0.02 | 0.0229 ± 0.00046 | – | –
[2], 303.15 K, x1 = 0.03 | 0.0247 ± 0.00049 | – | –
[2], 303.15 K, x1 = 0.04 | 0.0253 ± 0.00051 | – | –
[2], 303.15 K, x1 = 0.05 | 0.0271 ± 0.00054 | – | –
[2], 303.15 K, x1 = 0.06 | 0.0271 ± 0.00054 | – | –
[2], 303.15 K, x1 = 0.07 | 0.0235 ± 0.00047 | – | –
